# Where two headings read alike, the source gives them in different places.
# Columns and labels:
# [1] = system: non-expressing oocytes; test: cells; type: cell-based, Xenopus laevis; conditions: Xenopus laevis, total [3H]CQ transport; for inhibition at 500 µM: [test solute] = 0.5 mM; for inhibition at 1000 µM: [test solute] = 1 mM; for inhibition at 2000 µM: [test solute] = 2 mM
# Outline: (§1)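 Transport runs from the acidic bath into the cytosol, analogous to PfCRT-mediated efflux out of the vacuole. Non-expressing oocytes act as background.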
# [2] = biological target: T1, PfCRT^3D7 (Plasmodium falciparum, UniProt Q8IBZ9); test: cell-based; type: cell-based; conditions: total [3H]CQ transport; for inhibition at 500 µM: [test solute] = 0.5 mM; for inhibition at 1000 µM: [test solute] = 1 mM; for inhibition at 2000 µM: [test solute] = 2 mM
# Outline: as §1
# [3] = biological target: T2, PfCRT^Dd2 (Plasmodium falciparum, UniProt Q9N623, A220S/I356T/K76T/M74I/N326S/N75E/Q271E/R371I); test: [3H]CQ uptake into Xenopus oocytes, cis-inhibition by unlabelled solute; type: cell-based
# Outline: as §1
# [4] = biological target: T3, PfCRT^Ecu1110 (Plasmodium falciparum, UniProt Q9N623, A220S/I356L/K76T/N326D); test: as above; type: cell-based
# Outline: as §1
# [5] = system: non-expressing oocytes; type: cell-based, Xenopus laevis; conditions: total [3H]CQ transport; for Uptake of [3H]CQ (% non-expressing oocyte control), trans-stimulation: non-expressing oocytes, normalised to the oocyte type control; for Uptake of [3H]CQ (% PfCRTDd2 control), trans-stimulation, non-expressing oocytes: mean ± SEM, SEM
# Outline: (§2)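 Oocytes (ten per treatment, ≥4 independent frogs/days) were preloaded by injecting VF-6 in 25 nL ND96 at pH 5.0, 5.5, 6.0 or 7.0, or Na^+-free choline buffer, then uptake run 1.5 h, 27.5 °C, ND96 pH 5.5 by default. Internal concentrations assumed ~400 nL oocyte volume.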
# [6] = biological target: T1, PfCRT^3D7; test: cell-based; type: cell-based
# Outline: as §2
# [7] = biological target: T2, PfCRT^Dd2; test: cell-based; type: cell-based; conditions: […]; for activity at 45000 µM: [test solute]i = 45 mM (30 mM for some solutes due to solubility)
# Outline: as §2
# [8] = biological target: T3, PfCRT^Ecu1110; test: cell-based; type: cell-based; conditions: […]
# Outline: as §2
# [9] = biological target: T4, PfNT1 (Plasmodium falciparum, UniProt Q8IDM6); test: cell-based; type: cell-based; conditions: for activity at 5000 µM: total [3H]CQ transport
# T4 construct: expressed in transfected cells; host or cells: Xenopus laevis oocytes (stage V-VI), cRNA-injected
# Outline: as §2
# [10] = system: PfCRT; test: Influx of VF-6 via PfCRT into the oocyte, solutes tested as potential co-substrates; type: cell-based, Plasmodium falciparum; set-up: key: X: Compounds that have been tested as potential co-substrates but are not required for influx of VF-6 via PfCRT into the oocyte; conditions: X marks the solute
# [11] = system: PfCRT; test: Potential co-substrates tested for influx of VF-6 via PfCRT into the oocyte; type: cell-based, Plasmodium falciparum; set-up: key: X: Compounds that have been tested as potential co-substrates but are not required for influx of VF-6 via PfCRT into the oocyte
# [12] = Oocyte, mean ± SEM, SEM, read-out: Uptake of [3H]CQ (% PfCRTDd2 control), cis-inhibition, non-expressing oocytes
# [13] = non-expressing oocytes, normalised to the oocyte type control, read-out: Uptake of [3H]CQ (% non-expressing oocyte control), cis-inhibition
# [14] = PfCRT3D7 oocytes, normalised to the oocyte type control, read-out: Uptake of [3H]CQ (% PfCRT3D7 control), cis-inhibition
# [15] = mean ± SEM, SEM, read-out: Uptake of [3H]CQ (% PfCRTDd2 control), cis-inhibition, PfCRT3D7
# [16] = read-out: PfCRT-mediated [3H]CQ transport, cis-inhibition (% PfCRTDd2 control)
# [17] = read-out: Uptake of [3H]CQ (% PfCRTDd2 control), cis-inhibition, PfCRTDd2, SEM
# [18] = read-out: PfCRT-mediated [3H]CQ transport, cis-inhibition (% PfCRTEcu1110 control)
# [19] = read-out: Uptake of [3H]CQ (% PfCRTDd2 control), cis-inhibition, PfCRTEcu1110, SEM
# [20] = read-out: Uptake of [3H]CQ (% PfCRTEcu1110 control), cis-inhibition
# [21] = read-out: [3H]CQ transport (% PfCRTEcu1110 control), cis-inhibition, PfCRTEcu1110, SEM
# T1 sequence (Q8IBZ9 59-398): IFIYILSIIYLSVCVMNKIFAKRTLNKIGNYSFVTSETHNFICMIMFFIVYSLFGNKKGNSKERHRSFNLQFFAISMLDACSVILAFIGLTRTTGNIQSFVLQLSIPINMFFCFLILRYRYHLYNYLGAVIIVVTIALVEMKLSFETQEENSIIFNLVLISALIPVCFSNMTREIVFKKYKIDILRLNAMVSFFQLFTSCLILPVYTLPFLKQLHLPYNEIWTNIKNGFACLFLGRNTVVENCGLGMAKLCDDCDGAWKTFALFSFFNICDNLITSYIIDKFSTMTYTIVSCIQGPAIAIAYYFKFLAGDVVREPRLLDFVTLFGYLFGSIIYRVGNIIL
# T3 sequence (Q9N623 whole entry A220S/I356L/K76T/N326D): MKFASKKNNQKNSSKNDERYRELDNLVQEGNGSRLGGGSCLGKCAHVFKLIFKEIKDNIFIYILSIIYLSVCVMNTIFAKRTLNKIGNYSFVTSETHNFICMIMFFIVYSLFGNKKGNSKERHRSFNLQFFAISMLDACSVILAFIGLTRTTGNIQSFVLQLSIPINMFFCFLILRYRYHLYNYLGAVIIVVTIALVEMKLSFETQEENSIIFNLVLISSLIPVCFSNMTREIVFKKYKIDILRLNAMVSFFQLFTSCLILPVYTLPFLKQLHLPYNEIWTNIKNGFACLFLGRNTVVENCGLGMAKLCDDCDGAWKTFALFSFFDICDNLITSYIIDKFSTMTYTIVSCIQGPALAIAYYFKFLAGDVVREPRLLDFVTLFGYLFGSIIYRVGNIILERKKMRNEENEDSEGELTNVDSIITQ
# T2 sequence (Q9N623 whole entry A220S/I356T/K76T/M74I/N326S/N75E/Q271E/R371I): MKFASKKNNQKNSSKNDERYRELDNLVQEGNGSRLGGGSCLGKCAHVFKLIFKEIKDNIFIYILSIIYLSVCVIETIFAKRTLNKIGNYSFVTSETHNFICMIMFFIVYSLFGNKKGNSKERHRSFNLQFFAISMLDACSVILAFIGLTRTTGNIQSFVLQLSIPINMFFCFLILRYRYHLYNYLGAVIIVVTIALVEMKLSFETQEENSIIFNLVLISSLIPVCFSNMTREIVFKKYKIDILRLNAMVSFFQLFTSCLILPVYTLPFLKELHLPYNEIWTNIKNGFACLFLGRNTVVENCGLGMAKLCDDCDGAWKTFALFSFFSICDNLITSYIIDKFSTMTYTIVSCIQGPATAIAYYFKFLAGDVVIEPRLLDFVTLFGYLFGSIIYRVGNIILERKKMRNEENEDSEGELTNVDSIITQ
# T4 sequence (Q8IDM6 whole entry): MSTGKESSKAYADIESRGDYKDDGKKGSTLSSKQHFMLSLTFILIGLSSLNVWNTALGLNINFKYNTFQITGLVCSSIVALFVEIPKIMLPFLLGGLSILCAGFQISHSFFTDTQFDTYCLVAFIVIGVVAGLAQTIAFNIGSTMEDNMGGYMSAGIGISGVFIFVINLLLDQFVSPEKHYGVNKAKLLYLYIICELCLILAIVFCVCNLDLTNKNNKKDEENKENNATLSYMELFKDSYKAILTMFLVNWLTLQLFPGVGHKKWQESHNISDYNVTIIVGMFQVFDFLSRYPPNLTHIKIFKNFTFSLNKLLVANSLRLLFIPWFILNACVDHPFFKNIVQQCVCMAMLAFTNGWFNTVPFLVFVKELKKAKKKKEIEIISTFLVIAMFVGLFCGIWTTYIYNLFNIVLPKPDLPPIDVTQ
compound,measurement,setting,value
N[C@@H](CO)C(=O)O [L-serine],inhibition at 500 µM,[1]; [12],2.9 ± 0.06%
same,inhibition at 1000 µM,[1]; [12],3.6 ± 0.09%
same,inhibition at 2000 µM,[1]; [12],3.2 ± 0.1%
same,inhibition at 500 µM,[1]; [13],100 ± 4.3%
same,inhibition at 1000 µM,[1]; [13],99 ± 3.7%
same,inhibition at 2000 µM,[1]; [13],99 ± 5.2%
same,inhibition at 500 µM,[2]; [14],98 ± 3.1%
same,inhibition at 1000 µM,[2]; [14],100 ± 3.6%
same,inhibition at 2000 µM,[2]; [14],98 ± 3.6%
same,inhibition at 500 µM,[2]; [15],3.1 ± 0.06%
same,inhibition at 1000 µM,[2]; [15],2.2 ± 0.03%
same,inhibition at 2000 µM,[2]; [15],2.6 ± 0.08%
same,inhibition at 500 µM,[3]; [16],99 ± 4.6%
same,inhibition at 2000 µM,[3]; [16],94 ± 2.1%
same,inhibition at 500 µM,[3]; [17],101 ± 3.3%
same,inhibition at 1000 µM,[3]; [17],98 ± 2.6%
same,inhibition at 2000 µM,[3]; [17],96 ± 3.5%
same,inhibition at 500 µM,[4]; [18],97 ± 1.5%
same,inhibition at 1000 µM,[4]; [18],97 ± 3.5%
same,inhibition at 2000 µM,[4]; [18],98 ± 3.2%
same,inhibition at 500 µM,[4]; [19],32 ± 1.9%
same,inhibition at 1000 µM,[4]; [19],32 ± 2.1%
same,inhibition at 2000 µM,[4]; [19],33 ± 1.8%
same,inhibition at 500 µM,[4]; [20],101 ± 2.2%
same,inhibition at 1000 µM,[4]; [20],101 ± 1.7%
same,inhibition at 2000 µM,[4]; [20],100 ± 2.2%
same,inhibition at 500 µM,[4]; [21],29 ± 1.7%
same,inhibition at 1000 µM,[4]; [21],29 ± 1.1%
same,inhibition at 2000 µM,[4]; [21],30 ± 0.6%
same,"Uptake of [3H]CQ (% non-expressing oocyte control), trans-stimulation",[5]; [test solute]i = 5 mM,100 ± 3.1 % non-expressing oocyte control
same,"Uptake of [3H]CQ (% non-expressing oocyte control), trans-stimulation",[5]; [test solute]i = 45 mM (30 mM for some solutes due to solubility),101 ± 2.8 % non-expressing oocyte control
same,"Uptake of [3H]CQ (% PfCRTDd2 control), trans-stimulation, non-expressing oocytes",[5]; [test solute]i = 5 mM (intracellular),2.8 ± 0.03 % PfCRTDd2 control
same,"Uptake of [3H]CQ (% PfCRTDd2 control), trans-stimulation, non-expressing oocytes",[5]; [test solute]i = 45 mM (intracellular; 30 mM for some solutes due to solubility),2.2 ± 0.01 % PfCRTDd2 control
same,activity at 5000 µM,"[6]; PfCRT3D7 oocytes, [test solute]i = 5 mM, total [3H]CQ transport, normalised to the oocyte type control, read-out: Uptake of [3H]CQ (% PfCRT3D7 control), trans-stimulation",100 ± 3.6%
same,"[3H]CQ transport (% PfCRT3D7 control), trans-stimulation, PfCRT3D7",[6]; SEM,0.3 ± 0.01 % PfCRT3D7 control
same,activity at 5000 µM,"[6]; [test solute]i = 5 mM (intracellular), PfCRT3D7 oocytes, normalised to oocyte type control, read-out: PfCRT-mediated [3H]CQ transport, trans-stimulation (% PfCRT3D7 control)",98 ± 4.1%
same,activity at 45000 µM,"[6]; SEM, read-out: Uptake of [3H]CQ (% PfCRTDd2 control), trans-stimulation, PfCRT3D7",3.3 ± 0.06%
same,activity at 45000 µM,"[6]; read-out: PfCRT-mediated [3H]CQ transport, trans-stimulation (% PfCRT3D7 control)",97 ± 4.5%
same,activity at 45000 µM,"[6]; read-out: Uptake of [3H]CQ (% PfCRT3D7 control), trans-stimulation",99 ± 3.7%
same,activity at 5000 µM,"[6]; total [3H]CQ transport, [test solute]i = 5 mM (intracellular), mean ± SEM, SEM, read-out: Uptake of [3H]CQ (% PfCRTDd2 control), trans-stimulation, PfCRT3D7",3.3 ± 0.06%
same,activity at 5000 µM,"[7]; pH 5.5, read-out: PfCRT-mediated [3H]CQ transport, trans-stimulation (% PfCRTDd2 control), [test solute]i = 5 mM (intracellular), PfCRTDd2 oocytes, normalised to oocyte type control",97 ± 4.4%
same,activity at 5000 µM,"[7]; pH 5.5, read-out: Uptake of [3H]CQ (% PfCRTDd2 control), trans-stimulation, PfCRTDd2, total [3H]CQ transport, [test solute]i = 5 mM (intracellular), mean ± SEM, SEM",99 ± 3.2%
same,activity at 5000 µM,"[7]; pH 5.5, read-out: Uptake of [3H]CQ (% PfCRTDd2 control), trans-stimulation, PfCRTDd2 oocytes, [test solute]i = 5 mM, total [3H]CQ transport, normalised to the oocyte type control",99 ± 3.2%
same,activity at 45000 µM,"[7]; pH 5.5, read-out: Uptake of [3H]CQ (% PfCRTDd2 control), trans-stimulation, PfCRTDd2 oocytes, total [3H]CQ transport, normalised to the oocyte type control",100 ± 2.9%
same,activity at 5000 µM,"[7]; pH 5.5, read-out: [3H]CQ transport (% PfCRTDd2 control), trans-stimulation, PfCRTDd2, trans-stimulation, [test solute]i = 5 mM (injected), PfCRT-mediated component (background subtracted), mean ± SEM, SEM",97 ± 4.4%
same,activity at 45000 µM,"[7]; pH 5.5, read-out: [3H]CQ transport (% PfCRTDd2 control), trans-stimulation, PfCRTDd2, trans-stimulation, PfCRT-mediated component (background subtracted), mean ± SEM, SEM",98 ± 3.6%
same,activity at 5000 µM,"[8]; pH 5.5, read-out: PfCRT-mediated [3H]CQ transport, trans-stimulation (% PfCRTEcu1110 control), [test solute]i = 5 mM (intracellular), PfCRTEcu1110 oocytes, normalised to oocyte type control",98 ± 3.1%
same,activity at 5000 µM,"[8]; pH 5.5, read-out: Uptake of [3H]CQ (% PfCRTEcu1110 control), trans-stimulation, PfCRTEcu1110 oocytes, [test solute]i = 5 mM, total [3H]CQ transport, normalised to the oocyte type control",100 ± 2.5%
same,activity at 45000 µM,"[8]; pH 5.5, read-out: Uptake of [3H]CQ (% PfCRTEcu1110 control), trans-stimulation, PfCRTEcu1110 oocytes, [test solute]i = 45 mM (30 mM for some solutes due to solubility), total [3H]CQ transport, normalised to the oocyte type control",98 ± 3.1%
same,activity at 5000 µM,"[8]; read-out: Uptake of [3H]CQ (% PfCRTDd2 control), trans-stimulation, PfCRTEcu1110, total [3H]CQ transport, [test solute]i = 5 mM (intracellular), mean ± SEM, SEM",36 ± 1.7%
same,activity at 45000 µM,"[8]; read-out: Uptake of [3H]CQ (% PfCRTDd2 control), trans-stimulation, PfCRTEcu1110, total [3H]CQ transport, [test solute]i = 45 mM (intracellular; 30 mM for some solutes due to solubility), mean ± SEM, SEM",35 ± 1.6%
same,activity at 5000 µM,"[9]; PfNT1 oocytes, [test solute]i = 5 mM, normalised to the oocyte type control, read-out: Uptake of [3H]CQ (% PfNT1 control), trans-stimulation",98 ± 2.6%
same,activity at 45000 µM,"[9]; SEM, read-out: Uptake of [3H]CQ (% PfCRTDd2 control), trans-stimulation, PfNT1",2.3 ± 0.06%
same,activity at 45000 µM,"[9]; read-out: Uptake of [3H]CQ (% PfNT1 control), trans-stimulation",98 ± 2.6%
same,activity at 5000 µM,"[9]; [test solute]i = 5 mM (intracellular), mean ± SEM, SEM, read-out: Uptake of [3H]CQ (% PfCRTDd2 control), trans-stimulation, PfNT1",3 ± 0.02%
same,Compounds that have been tested as potential co-substrates but are not required for influx of VF-6 via PfCRT into the oocyte,[10],X
same,Tested as potential co-substrate but not required for influx of VF-6 via PfCRT into the oocyte,[11],X
